Test results as given in patent US20120083522A1, “MODULATION OF INFLAMMATORY RESPONSES BY FACTOR XI” (Isis Pharmaceuitcals, inc., priority 2009, published 2012).
“Also recorded” adds a separate entry of the source. In the oligonucleotide strings, read from the 5' end, every base follows the letter of its sugar. An asterisk marks phosphorothioate; unmarked linkages are phosphodiester. Other units and linkages are bracketed, terminal groups are in braces. A string of capitals states the bases alone. e = 2'-O-(2-methoxyethyl) (MOE); [5mC] = 5-methylcytosine; d = 2'-deoxy (DNA)

Experiments:
[1] = Tolerability in CD1 mice: organ weight (Example 17); type: in vivo; conditions: 50 mg/kg s.c. twice a week, 2 weeks, vs PBS control, normalized to body weight
Method: Three days after the last dose was administered to all groups, the mice were sacrificed.

[2] = system: collagen-induced arthritis (CIA) model; assay: Arthritis Study A: collagen-induced arthritis (Example 11); type: in vivo, DBA/1J mice; conditions: for incidence of CIA (in words): 20 mg/kg
Method: (§1) The effect of inhibition of Factor XI and its role in fibrin accumulation in the joints leading to joint inflammation and rheumatoid arthritis was evaluated in a murine collagen-induced arthritis (CIA) model. […] Arthritis induced in mice administered collagen can be visually assessed and clinically scored as described by Marty et al. (J Clin Invest, 107:631-640, 2001) where 1 point is given for each swollen digit except the thumb (maximum, 4), 1 point is given for the tarsal or carpal joint, and 1 point is given for the metatarsal or metacarpal joint with a maximum score of […]. Each paw was graded individually, the cumulative clinical arthritic score per mouse reaching a maximum of 22 points
In a group of 15 DBA/1J mice, 20 mg/kg of ISIS 404071 was injected subcutaneously twice a week for 12 weeks. One control group of 15 mice was injected with 20 mg/kg of ISIS 403102 twice a week for 12 weeks. Two control groups of 15 mice each were injected with PBS twice a week for 12 weeks. Two weeks after the first oligonucleotide dose, type II bovine collagen (Chondrex Inc, Redmond, Wash.) was mixed with complete Freund's adjuvant, homogenized on ice and the emulsion, containing 100 μg of collagen, was injected subcutaneously at the base of the tail in the Factor XI group, the Factor VII group and one of the PBS control groups. A booster injection containing 100 μg collagen type II in incomplete Freund's adjuvant was injected subcutaneously at the base of the tail at a different injection site on day 21 after the first collagen injection in these groups.
Starting 35 days from the first collagen injection, mice in all groups were examined daily for the visual appearance of arthritis, such as swelling and stiffness, in peripheral joints. The results are presented in Table 20 (expressed as a percentage of the PBS control) and in FIGS. 1-3.
‘Incidence of CIA’ refers to the percentage of mice in each group that had CIA at day 40. The ‘percentage of paws affected’ refers to the percentage of paws out of a total of 60 paws in each group of mice that were affected with arthritis. ‘Average number of affected paws’ refers to the number of affected paws in mice that were diagnosed to have arthritis. The ‘clinical severity of CIA’ was scored as described by Marty et al. (J Clin Invest, 107:631-640, 2001) and as follows: 1 point for each swollen digit except the thumb (maximum, 4), 1 point for the tarsal or carpal joint, and 1 point for the metatarsal or metacarpal joint with a maximum score of 6 for a hindpaw and 5 for a forepaw. Each paw was graded individually, the cumulative clinical arthritic score per mouse reaching a maximum of 22 points.

[3] = system: IL-1, IL-6, IL-10, IL-12, IL-17, TNF-α, GATA-3; assay: Colitis Study F: cytokine and GATA-3 mRNA levels in colon; type: in vivo, Swiss Webb mice; conditions: day 7
Method: (§2) In a first group of 8 Swiss Webb mice, 50 mg/kg of ISIS 404071 was injected subcutaneously twice a week for 3 weeks. Two control groups of 8 mice each were injected with PBS twice a week for 3 weeks. After the oligonucleotide treatment, 4% DSS in water was administered ad libitum for 7 days to the experimental group and one PBS control group. Mice were sacrificed at the end of the study on day 7 after DSS was administered.
The mRNA levels of cytokines IL-1, IL-6, IL-10, IL-12, IL-17 and TNF-α were measured in the colon of the mice groups at the end of the study on day 7 after DSS was administered. Colons were homogenized on ice in PBS supplemented with protease inhibitors (Sigma, St. Louis, Mo.) and extracted with rotation at 4° C. for 1 hour. After removal of insoluble material by centrifugation, colon homogenates were used for the cytokine analysis by multiplex ELISA (Meso Scale Discovery, Gaithersburg, Md.) according to the manufacture's protocol. Cytokine levels in colon extracts were normalized to the protein concentration measured by protein assay kit (BioRad, Hercules, Calif.). The levels of pro-inflammatory cytokines, including Th1 cytokines IL-1 and IL-6, elevated by DSS administration were decreased by treatment with ISIS 404071.

[4] = system: collagen-induced arthritis model; assay: Arthritis Study B: collagen-induced arthritis, clinical effects (Example 11); type: in vivo, DBA/1J mice
Method: as §1
In a group of 20 DBA/1J mice, 20 mg/kg of ISIS 404071 were injected subcutaneously twice a week for ten weeks. In a second group of 20 DBA/1J mice, 20 mg/kg of ISIS 404057 were injected subcutaneously twice a week for ten weeks. In a third control group of 20 DBA/1J mice, 20 mg/kg of ISIS 421208 were injected subcutaneously twice a week for ten weeks. Two control groups of 20 mice each were injected with PBS twice a week for ten weeks.
Two and a half weeks after the first oligonucleotide dose, type II bovine collagen in complete Freund's adjuvant was injected subcutaneously at the base of the tail in all the experimental groups and one PBS control group. A booster injection containing 100 μg collagen type II in incomplete Freund's adjuvant was injected subcutaneously at the base of the tail at a different injection site on day 21 after the first collagen injection in these groups.
Mice in all groups were examined daily after day 30 after the first collagen injection for the visual appearance of arthritis in peripheral joints. The results in Table 22 are expressed as percent change compared to the PBS control except for the liver and spleen weight.

[5] = Colitis Study F: plasma ALT, AST, BUN, CREAT, CHOL, TBIL; type: in vivo, Swiss Webb mice; conditions: DSS-treated mice, 50 mg/kg s.c. twice a week for 3 weeks
Method: as §2
Plasma levels of aminotransferases (ALT and AST), blood urea nitrogen (BUN), creatinine (CREAT), cholesterol (CHOL) and total bilirubin (TBIL) were measured after treatment and are shown in Table 47.

[6] = system: P-selectin; assay: Colitis Study C: serum P-selectin; type: in vivo, mice
Method: The effect of antisense inhibition of Factor XI on serum P-selectin levels was evaluated in this study. DSS administration led to increase in P-selectin levels which was reduced by treatment with ISIS 404071.

[7] = DBA/1J mice, 20 mg/kg s.c. twice a week for ten weeks, end of study

**Q.** With “416850 (antisense TGCACAGTTTCTGGCAGGCC; 5-10-5 gapmer, wing sugar chemistry not given here, further chemistry not given here) [compound 416850]” as the substance, how does the “Percent change in kidney weight” value [1] read?
**A.** −10%

**Q.** For “TGGTAATCCACTTTCAGAGG (eT*eG*eG*eT*eA*dA*dT*d[5mC]*d[5mC]*dA*d[5mC]*dT*dT*dT*d[5mC]*eA*eG*eA*eG*eG) [ISIS 404071, 5-10-5 MOE gapmer targeting murine Factor XI, target start site 869]”, which “incidence of CIA (in words)” value ([2]; Arthritis Study A) is on record?
**A.** significantly inhibit the incidence of CIA

**Q.** And the “incidence of CIA (in words)” value ([2]; Arthritis Study A, listed as Factor XI ASO)?
**A.** lower incidence of CIA

**Q.** And the “affected paws (in words)” value ([2]; Arthritis Study A, FIG. 1B and 2A, listed as Factor XI ASO)?
**A.** lower incidence of affected paws; also recorded: fewer affected paws on average

**Q.** What about the “arthritis severity (in words)” value ([2]; Arthritis Study A, FIG. 2B) of the same substance?
**A.** less severe arthritis than the control mice

**Q.** What about the “timeline of CIA incidence (in words)” value ([2]; Arthritis Study A, FIG. 3) of the same substance?
**A.** developed CIA at a later stage with fewer affected mice

**Q.** What about the “Average no. of paws affected” value ([2]; DBA/1J mice, 20 mg/kg s.c. twice a week for 12 weeks, in mice diagnosed with arthritis) of the same substance?
**A.** 1

**Q.** And the “% of paws affected” value ([2]; DBA/1J mice, 20 mg/kg s.c. twice a week for 12 weeks, out of 60 paws per group)?
**A.** 3%

**Q.** What about the “% of CIA” value ([2]; DBA/1J mice, 20 mg/kg s.c. twice a week for 12 weeks, percentage of mice in group with CIA at day 40) of the same substance?
**A.** 13%

**Q.** And the “Clinical severity of CIA” value ([2]; DBA/1J mice, 20 mg/kg s.c. twice a week for 12 weeks, score of Marty et al., maximum 22 points)?
**A.** 1

**Q.** What about the “pro-inflammatory cytokines incl. IL-1 and IL-6 in colon (in words)” value ([3]; Colitis Study F) of the same substance?
**A.** decreased

**Q.** And the “GATA-3 mRNA level in the colon” value ([3]; DSS-treated mice, 50 mg/kg)?
**A.** 359 % of PBS treated animals

**Q.** What about the “IL-1 mRNA level in the colon” value ([3]; DSS-treated mice, 50 mg/kg) of the same substance?
**A.** 1189 % of PBS treated animals

**Q.** And the “IL-6 mRNA level in the colon” value ([3]; DSS-treated mice, 50 mg/kg)?
**A.** 1056 % of PBS treated animals

**Q.** What about the “IL-10 mRNA level in the colon” value ([3]; DSS-treated mice, 50 mg/kg) of the same substance?
**A.** 202 % of PBS treated animals

**Q.** What about the “IL-12 mRNA level in the colon” value ([3]; DSS-treated mice, 50 mg/kg) of the same substance?
**A.** 234 % of PBS treated animals

**Q.** What about the “IL-17 mRNA level in the colon” value ([3]; DSS-treated mice, 50 mg/kg) of the same substance?
**A.** 787 % of PBS treated animals

**Q.** And the “TNF-α mRNA level in the colon” value ([3]; DSS-treated mice, 50 mg/kg)?
**A.** 1127 % of PBS treated animals

**Q.** And the “amount of arthritis assessed (in words)” value ([4]; Arthritis Study B, 20 mg/kg twice a week for ten weeks, compared to untreated mice)?
**A.** significantly decreased the amount of arthritis

**Q.** And the “% of CIA” value [4, 7]?
**A.** 64%

**Q.** What about the “% of paws affected” value [4, 7] of the same substance?
**A.** 20%

**Q.** What about the “Average no. of paws affected” value [4, 7] of the same substance?
**A.** 0.82

**Q.** And the “Clinical severity of CIA” value [4, 7]?
**A.** 4.6

**Q.** And the “Plasma ALT” value [5]?
**A.** 133.6 U/L

**Q.** And the “Plasma AST” value [5]?
**A.** 339.3 U/L

**Q.** What about the “Plasma BUN” value [5] of the same substance?
**A.** 29.5 mg/dL

**Q.** And the “Plasma CHOL” value [5]?
**A.** 170.3 mg/dL

**Q.** What about the “Plasma TBIL” value [5] of the same substance?
**A.** 0.7 mg/dL

**Q.** What about the “P-selectin levels (in words)” value [6] of the same substance?
**A.** reduced

**Q.** And the P-selectin ([6]; DSS-induced colitis mice)?
**A.** 83 ng/mL
